Reference: ChEMBL document CHEMBL5724914, “Linking interpersonal differences in gut microbiota composition and drug biotransformation activity” (2024)

Legend:
[1] = human gut metagenome, 24 h, 2 µM
[2] = (§1) The drug is tested on Z-025 corresponding to rabbit gut metagenome with ENA study accession number: PRJEB37062 and ENA sample accession number: ERS12561824 for biotransformation under anaerobic condition. The drug concentrations were measured over 9 timepoints collected between 0 and 24 hours of incubation by liquid-chromatography-coupled mass spectrometry (LC–MS); settings: 2 µM
[3] = as §1, with “WLS-082” for “Z-025”, “human” for “rabbit”, “ERS12561751” for “ERS12561824”; settings: 2 µM
[4] = human gut metagenome, 24 h, 2 µM; remark: listed apart in the source
[5] = as §1, with “WLS-010” for “Z-025”, “human” for “rabbit”, “ERS12561743” for “ERS12561824”; settings: 2 µM
[6] = as §1, with “WLS-240” for “Z-025”, “human” for “rabbit”, “ERS12561773” for “ERS12561824”; settings: 2 µM
[7] = as §1, with “Z-017” for “Z-025”, “mouse” for “rabbit”, “ERS12561816” for “ERS12561824”; settings: 2 µM
[8] = human gut metagenome, 24 h, 2 µM; remark: listed apart in the source
[9] = human gut metagenome, 24 h, 2 µM; remark: listed apart in the source
[10] = human gut metagenome, 24 h, 2 µM; remark: listed apart in the source
[11] = human gut metagenome, 24 h, 2 µM; remark: listed apart in the source
[12] = as §1, with “Z-010” for “Z-025”, “to” for “to rabbit gut”, “ERS12561810” for “ERS12561824”; settings: 2 µM
[13] = human gut metagenome, 24 h, 2 µM; remark: listed apart in the source
[14] = as §1, with “WLS-350” for “Z-025”, “human” for “rabbit”, “ERS12561789” for “ERS12561824”; settings: 2 µM
[15] = human gut metagenome, 24 h, 2 µM; remark: listed apart in the source
[16] = human gut metagenome, 24 h, 2 µM; remark: listed apart in the source
[17] = as §1, with “WLS-039” for “Z-025”, “human” for “rabbit”, “ERS12561746” for “ERS12561824”; settings: 2 µM
[18] = as §1, with “WLS-007” for “Z-025”, “human” for “rabbit”, “ERS12561742” for “ERS12561824”; settings: 2 µM
[19] = human gut metagenome, 24 h, 2 µM; remark: listed apart in the source
[20] = human gut metagenome, 24 h, 2 µM; remark: listed apart in the source
Also: call rule not given here.

SMILES	Bacterial Biotransformation [1]	Bacterial Biotransformation [2]	Bacterial Biotransformation [3]	Bacterial Biotransformation [4]	Bacterial Biotransformation [5]	Bacterial Biotransformation [6]	Bacterial Biotransformation [7]	Bacterial Biotransformation [8]	Bacterial Biotransformation [9]	Bacterial Biotransformation [10]	Bacterial Biotransformation [11]	Bacterial Biotransformation [12]	Bacterial Biotransformation [13]	Bacterial Biotransformation [14]	Bacterial Biotransformation [15]	Bacterial Biotransformation [16]	Bacterial Biotransformation [17]	Bacterial Biotransformation [18]	Bacterial Biotransformation [19]	Bacterial Biotransformation [20]
CCOC(=O)[C@H](CCc1ccccc1)N[C@@H](C)C(=O)N1[C@H](C(=O)O)C[C@H]2CCCC[C@@H]21 [TRANDOLAPRIL]	Compound metabolized	Compound NOT metabolized	Compound metabolized	Compound metabolized	Compound metabolized	Compound metabolized	Compound NOT metabolized	Compound metabolized	Compound metabolized	Compound NOT metabolized	Compound metabolized	Compound metabolized	Compound metabolized	Compound NOT metabolized	Compound metabolized	Compound NOT metabolized	Compound metabolized	Compound metabolized	Compound NOT metabolized	Compound NOT metabolized
CC(CN(C)C)CN1c2ccccc2CCc2ccccc21.O=C(O)/C=C\C(=O)O (stereo not given) [TRIMIPRAMINE MALEATE]	Compound NOT metabolized	Compound NOT metabolized	Compound metabolized	Compound metabolized	Compound metabolized	Compound metabolized	Compound NOT metabolized	Compound metabolized	Compound NOT metabolized	Compound metabolized	Compound NOT metabolized	Compound NOT metabolized	Compound NOT metabolized	Compound NOT metabolized	Compound metabolized	Compound NOT metabolized	Compound metabolized	Compound metabolized	Compound metabolized	Compound NOT metabolized
CC(=O)CC(c1ccccc1)c1c(O)c2ccccc2oc1=O (stereo not given) [WARFARIN]	Compound metabolized	Compound metabolized	Compound metabolized	Compound metabolized	Compound metabolized	Compound metabolized	Compound NOT metabolized	Compound metabolized	Compound metabolized	Compound metabolized	Compound metabolized	Compound metabolized	Compound metabolized	Compound metabolized	Compound metabolized	Compound metabolized	Compound NOT metabolized	Compound metabolized	Compound metabolized	Compound NOT metabolized
Cc1ccc(-c2nc3ccc(C)cn3c2CC(=O)N(C)C)cc1 [ZOLPIDEM]	Compound metabolized	Compound NOT metabolized	Compound NOT metabolized	Compound NOT metabolized	Compound NOT metabolized	Compound metabolized	Compound NOT metabolized	Compound metabolized	Compound metabolized	Compound NOT metabolized	Compound NOT metabolized	Compound metabolized	Compound NOT metabolized	Compound NOT metabolized	Compound NOT metabolized	Compound NOT metabolized	Compound NOT metabolized	Compound NOT metabolized	Compound metabolized	Compound NOT metabolized
